Measurements as given in patent US20090305888A1, “Materials and Methods for Providing Oxygen to Improve Seed Germination and Plant Growth” (priority 2006, published 2009).
Like-named read-outs stand apart in the source and are kept apart here.

Key:
[1] = Oxygen release from peroxides in water or nutrient solution and its adjustment; type: physicochemical; conditions: for oxygen level as nutrient strength increases: nutrient solution with or without companion cations, FIGS. 17 and 18; for increase of oxygen liberated per millimole of EDTA: slope of linear fit, FIG. 10
Procedure: One hundred milligrams of each of the above solid compositions comprising oxidizing agents was put in a 50 ml polypropylene tube, respectively, unless specialized. 50 ml de-ionized water or nutrient solution was put into the tubes. The strength of the nutrient solutions was 25%, 50%, 100%, 200% or 400% of Yan's formula (Yan, F. et al., “Adaptation of active proton pumping and plasmalemma ATPase activity of corn roots to low root medium pH,” Plant Physiology, 117:311-319 (1998)). The oxygen solutions were allowed to equilibrate over night before any measurements were made.
Oxygen contents in the solutions were determined with an oxygen electrode and ASET system (Applicable Electronics, Inc). Calibration was made by nitrogen aerating deionized water and air equilibrated deionized water. The deionized water consists of 0% oxygen level and the air equilibrated deionized water consists of 21% oxygen content. The temperature of the deionized water was measured and recorded for every measurement. The actual oxygen content in the deionized water at a specific temperature was derived from a handbook of chemistry (David R. Lide, Handbook of Chemistry and Physics, 79th Edition, 1998-1999, pp. 8-87). A regressive equation was formed based on data from calibration calculations and the handbook. All of the observed values were changed into oxygen contents in micromoles through the regressive equation.
Different levels of companion cations of peroxides or chelate were added to the sample solutions. For example, EDTA was added to the 50 ml tubes with peroxide solutions. The peroxide solutions were made in both deionized water and nutrient solutions. After equilibrating overnight, the oxygen contents of the adjusted solutions were analyzed.

[2] = system: ADH of corn roots; test: ADH activity of roots of flooded corn plants (FIG. 23); type: in vivo; conditions: flooded for 3 days
[3] = system: Bald cypress seedlings; test: Flooding and salinity of Bald cypress seedlings; type: in vivo; conditions: 8 ppt salinity
Excerpt: Bald cypress is a plant of great ecological and economic significance in Florida. However, these tough, tolerant, inexpensive and somewhat idiosyncratic trees are at the heart of a fast-disappearing ecosystem. Flooding and salinity caused by hurricanes have accelerated the disappearance of the species. Five basins were set up to mimic flooding basins to study the effects of a solid composition of the invention on alleviating the impact of flooding and salinity on Bald cypress seedlings. These basins were established by using plastic swimming pools with 185×152×23 cm plastic tubs for the combined treatment of flooding and salinity to bald cypress seedlings.
Five levels of salinity were presented: 0, 2, 4, 6 and 8 ppt in sodium chloride. Three flooding levels were presented: 0%, 50% and 100% root submergence. 0% flooding level consisted of 100% of the pots being above the water surface; 50% flooding level consisted of 50% of the height of the pots being submerged; and 100% flooding level consisted of 100% of the height of the pots being submerged.
Two oxygen bioavailable levels were provided for those seedlings that were fully flooded with 8 ppt salinity: (1) with composition comprising oxidizing agent or (2) without composition comprising oxidizing agent in the potted soil. […] Survival rates of the potted seedlings were observed and calculated for each of the treatments.

[4] = Solubility product (Ksp) of the peroxides; type: physicochemical
[5] = system: ADH of corn seedlings; test: ADH activity of flooded corn seedlings grown in soil in pots with oxygen fertilizers (FIG. 28); type: in vivo
Procedure: ADH and NR were extracted in the same extraction buffer including 50 mM Tris-HCl (pH 8.0), 1 mM EDTA, 12 μM mercaptoethanol, and 0.05 mg DTT/ml. Frozen root tissues were ground rapidly in a chilled mortar and pestle with the above chilled extraction buffer. The homogenate was centrifuged at 15 000 g at 4° C. for 15 minutes. One hundred μl of supernatant was added to 800 μl of reaction solution containing 50 mM Tris-HCl buffer at pH 9.0, 1 mM EDTA, and 1 mM NAD. The assay uses 15% (v/v) ethanol as the substrate and measures the production of NADH. Measurement of NADH formation was performed in a spectrophotometer (DU 64, Beckman Instruments, Fullerton, Calif.) for 60 seconds at 340 nm. A unit of ADH is defined as the production of 1 nmol of NADH min^−1 mg^−1 protein.

[6] = system: corn seeds; conditions: for germination rate: FIG. 2
Procedure: Corn seeds of FR27 x FRM017 (GRADE: 24RD) were provided by Illinois Foundation Seeds Inc. Two sets of seeds were used: one set of seeds consisted of fresh seeds and the other set of seeds consisted of seeds that were […].
H2O2 methods: 30 seeds and 50 ml 0.5 mM Ca (as CaSO4) with 3/5000, 3/4000, 3/3000, 3/2000, 3/1000 or 3/100 H2O2, separately, were placed into 9 cm dishes. The seeds were soaked in these solutions for 24 hours and then put on and covered by wet napkins. The napkins were wetted in the soaking solutions, respectively.

[7] = system: corn seeds; conditions: 3/2000 hydrogen peroxide for one day, embryos or endosperm, FIG. 6
Procedure: The tested seeds were stabilized as described above. The seed samples were soaked in 0.5 mM CaSO4 solution with or without 3/2000 hydrogen peroxide for one day before any measurements were made. Pt/Ir oxygen electrodes were used. The microelectrodes were calibrated before and after each experiment. Calibrations were performed in deionized water saturated with air (which includes 21% oxygen concentration) and then bubbled with nitrogen gas for at least 30 min (so as to provide 0% oxygen concentration). Ten scans were done on either embryos or endosperms.

[8] = system: Alcohol dehydrogenase (ADH) of corn embryos; conditions: 3/2000 hydrogen peroxide, embryos facing downward, 48 hours after germination at 25° C., FIG. 4
Procedure: Alcohol dehydrogenase (“ADH”) activities of corn embryos placed in environments with different concentrations of bioavailable oxygen at 48 hours after germination at 25° C. were observed. Before germination, corn seeds were soaked in 0.5 mM CaSO4 solution, in aeroponics, or in 3/2000 H2O2 for 24 hours. All of the embryos were exposed to air except for one sample group treated with water, which was placed into soil.
Following treatment, each corn seed was cut into two halves on the embryo. Four halves of embryos were homogenized in extraction buffer including 50 mM Tris-HCl (pH 8.0), 1 mM EDTA, 0.5 mg/ml DTT, and 12 μM mercaptoethanol. The suspension solution of the enzyme was centrifuged twice at 15000 rpm for 5 min in order to separate oil (on the top) from pellets (at the bottom). The supernatant from the second centrifuge was used to measure ADH activity.
100 μl of the enzyme solution and 900 μl of reaction solution that included 50 mM Tris-HCl (pH 9.0), 1 mM EDTA, and 1 mM NAD were incubated in 1.5 ml Eppendorf tubes in a water bath at 30° C. for 3 min. Then, 100 μl 15% ethanol and the reaction solution were added directly to cuvette. Reaction time was 1 min. in the cuvette at 340 nm. The assay uses ethanol as the substrate and measures the production of NADH. […] The relative ADH activity was calculated based on taking the ADH activity of corn seeds germinated in aeroponics as 100%.

[9] = system: corn seed embryos or endosperms; conditions: 3/2000 hydrogen peroxide for one day, medium 100 μM CaCl2, FIG. 5
Procedure: 1.5 mm borosilicate glass capillaries (cat no. TW150-4) that were 10 cm in length were pulled into two micropipettes through a Sutter P-97 at 545° C. The freshly pulled micropipettes were silanized at 200° C. with N,N-Dimethyltrimethylslylamine according to Smith's method (Smith, P J S et al., “Self-referencing, non-invasive, ion selective electrode for single cell direction of trans-plasma membrane,” Microscopy Research and Technique, 46:398-417 (1999)).
Micropipettes were backfilled with H^+ probe backfilling solution of 50 mM KCl and 50 mM HK2PO4.
45 g of Sylgard 184 silicone elastomer and 5 g of Sylgard 184 curing agent (Dow Corporation, USA) were poured into the bottom of a 10 cm Pyrex dish in order to provide a medium for stabilizing the tested treated seeds. One seed was appropriately stabilized in the center of the Pyrex dish with 4 to 5 stainless-steel needles.
Microelectrodes were calibrated before and after each experiment. Calibrations were performed at standard pH 6, 7, and 8 solutions (Fisher Scientific) at 25° C. The Nernst Slopes (in mV decade^−1) were equal or close to 59. Following calibration, the microelectrode was positioned on both the embryos and endosperm of the targeted seed. Then, the embryo and endosperm were, respectively, scanned 100 μm by 100 μm. At least 10 scans were done on either embryo or endosperm.

[10] = system: ADH of corn seedlings; conditions: nutrient solution of 2 mM hydrogen peroxide, FIG. 26
Procedure: The enzyme assay was performed according to the procedures described by Chung and Ferl (“Arabidopsis Alcohol Dehydrogenase Expression in Both Shoots and Roots Is Conditioned by Root Growth Environment,” Plant Physiol, 121:429-436 (1999)) and modified slightly. ADH and NR were extracted in the same extraction buffer including 50 mM Tris-HCl (pH 8.0), 1 mM EDTA, 12 μM mercaptoethanol, and 0.05 mg DTT/ml. Frozen root tissues were ground rapidly in a chilled mortar and pestle with the above chilled extraction buffer. The homogenate was centrifuged at 15 000 g at 4° C. for 15 minutes. One hundred μl of supernatant was added to 800 μl of reaction solution containing 50 mM Tris-HCl buffer at pH 9.0, 1 mM EDTA, and 1 mM NAD. The assay uses 15% (v/v) ethanol as the substrate and measures the production of NADH. Measurement of NADH formation was performed in a spectrophotometer (DU 64, Beckman Instruments, Fullerton, Calif.) for 60 seconds at 340 nm. A unit of ADH is defined as the production of 1 nmol of NADH min^−1 mg^−1 protein.

[11] = system: nitrate reductase (NR) of corn seedlings; conditions: nutrient solution of 2 mM hydrogen peroxide, FIG. 27
Procedure: NR assays were performed essentially as described by the protocol of Datta and Sharma (Rupali Datta and Rameshwar Sharma, “Temporal and spatial regulation of nitrate reductase and nitrite reductase in green maize leaves,” Plant Science, 144:77-83 (1999)). NR activity was measured immediately. 200 μl of supernatant was added to 800 μl of reaction solution consisting of 50 mM Tris-HCl buffer (pH 8.0), 1 mM EDTA, 100 μM NADH, 10 mM KNO3 and 1 μM Na2MoO4 in a 2 ml eppendorf tube. The reaction was performed in a water bath of 30° C. and terminated after 60 min by adding 500 μl of an equal volume of sulfanilamide (1% [w/v] in 3 n HCl) and naphthylethylene-diamine dihydrochloride (0.05% [w/v]) to the reaction mixture. The samples were colorimetrically measured at 540 nm. One unit of NR activity was defined as the amount required to produce 1 nmol of nitrite min^−1 mg^−1 protein.

[12] = system: corn root; conditions: nutrient solution with 1 mM H2O2 for two days, air bubbling (normoxia), FIG. 31
Procedure: Each of the untreated 1.5 mm borosilicate glass capillaries (cat no. TW150-4) of 10 cm length was pulled into two micropipettes through a Sutter P-97 at 545° C. The freshly pulled micropipettes were silanized at 200° C. with N,N-Dimethyltrimethylslylamine according to Smith's method (Smith, P J S et al., “Self-referencing, non-invasive, ion selective electrode for single cell direction of trans-plasma membrane,” Microscopy Research and Technique, 46:398-417 (1999)).
The micropipettes were backfilled with a H^+ probe backfilling solution of 50 mM KCl and 50 mM HK2PO4.
A rubber groove of 20 cm in length, 5 cm in width, and 1 cm in height was connected to the pot with 1800 ml nutrient solution via a peristaltic pump (Model: 77120-62, 12 VDC 1 AMP, Mfg by Barnant Company) and non-permeable oxygen tubing. One radicle root was appropriately stabilized in the groove with 4 to 5 Minucie stainless-steel needles. Microelectrodes were calibrated before and after each experiment. Calibrations were done in standard pH 6, 7, and 8 solutions (Fisher Scientific) at 25° C. […] Following calibration, the microelectrode was positioned on the targeted radicle root. The scanning started from the root tip and the root was scanned 100 μm by 100 μm near the root tip. Then the scanning intervals were adjusted gradually from 200 μm to 1000 μm or even longer. About 20000 μm along the root was scanned. […]

[13] = cited from earlier work

Which “oxygen released into water” value ([1]; 500 mg solid composition in 50 ml deionized water, FIG. 9) does the source give for `[Ca+2].[O-][O-]` [calcium peroxide] here?
Its value is “released more oxygen than magnesium peroxide”.

What about the “oxygen level as nutrient strength increases” value [1] of the same compound?
The value was “increases when the nutrient strength increases”.

And the “increase of oxygen liberated per millimole of EDTA” value [1]?
Its value is “about 19 micromoles”.

And the “ADH level compared with control” value ([2]; 18 g per pot)?
Its value is “almost as good as the control”.

And the “ADH activity in roots as more solid composition was used” value [2]?
Its value is “the less ADH activity observed in the tested roots”.

What about the death of seedlings ([3]; 100% flooding) of the same compound?
The death of seedlings was “No seedlings died”.

And the growth of seedlings ([3]; 100% roots submerged for four days, 20 g per pot, FIG. 32)?
Its growth of seedlings is “could grow”.

And the “Ksp relative to magnesium peroxide” value [4]?
Its value is “about 3000 times”.

And the “effect on ADH of seedlings suffering from flooding” value [5]?
Its value is “greatly lowered the ADH of the seedlings suffering from flooding”.

With `OO` [hydrogen peroxide] as the compound, how does the root lengths ([6]; 3/100 H2O2, third day after germination) read?
Its root lengths is 6.8±1.7 mm.

And the “germination rates among varying concentrations of H2O2” value ([6]; 3/2000 H2O2, FIG. 1)?
Its value is “the best germination rates”.

What about the “germination at 24 hours” value ([6]; 3/2000 H2O2, FIG. 3) of the same compound?
The value was “all of the seeds were able to germinate at 24 hours”.

What about the germination rate ([6]; 3/2000 H2O2, new seeds) of the same compound?
Its germination rate is 95.6%.

And the germination rate ([6]; 3/2000 H2O2, old seeds)?
The germination rate was 94.4%.

And the root lengths ([6]; 3/2000 H2O2, third day after germination)?
The root lengths was 34.8±1.7 mm.

What about the “germination rates of corn seeds compared with non-hydrogen peroxide exposure” value ([6]; H2O2 3/5000 to 3/100, 48 hours after germination, FIG. 1) of the same compound?
Its value is “significantly better germination rates than non-hydrogen peroxide exposure”.

And the “oxygen consumption rate relative to without hydrogen peroxide” value [7]?
The value was “about two”.

And the “diminished ADH activity” value [8]?
Its value is “about 40%”.

And the proton flux direction [9]?
Its proton flux direction is “proton efflux occurs heavily”.

What about the “ADH level compared with control” value [10] of the same compound?
The value was “slightly higher that that of the control”.

What about the “ADH level compared with hypoxic seedlings” value [10] of the same compound?
The value was “greatly lower than those of hypoxic seedlings”.

What about the “NR level compared with hypoxic seedlings” value [11] of the same compound?
The value was “greatly lower than those of hypoxic seedlings”.

And the “protons excreted by roots relative to hypoxia or anoxia” value [12]?
Its value is “seven to ten”.

For `[Mg+2].[O-][O-]` [magnesium peroxide], which “oxygen level as nutrient strength increases” value [1] is on record?
Its value is “very smooth when the nutrient strength increases”.

What about the “increase of oxygen liberated per millimole of EDTA” value [1] of the same compound?
The value was “about 14 micromoles”.

And the “ADH activity in roots as more solid composition was used” value [2]?
The value was “the less ADH activity observed in the tested roots”.

And the “effect on ADH of seedlings suffering from flooding” value [5]?
Its value is “greatly lowered the ADH of the seedlings suffering from flooding”.

And the “oxygen released by zero order constant release” value ([13]; after the first six days)?
Its value is 90%.

And the “oxygen released by first order release” value ([13]; first six days)?
Its value is 10%.

What does the source list for `O=C([O-])[O-].O=C([O-])[O-].OO.OO.OO.[Na+].[Na+].[Na+].[Na+]` [sodium percarbonate]?
ADH level compared with flooded treatment ([2]; 5 g): almost as bad as the flooded treatment without the supply of solid compositions; ADH activity in roots as more solid composition was used [2]: the less ADH activity observed in the tested roots
